Patent US9918963B2, “Therapeutic agent for disease based on inhibitory effect of macrophage migration inhibitory factor” (TOYAMA CHEMICAL CO., LTD., priority 2013, dated 2018)
Each block holds one molecule with its values, some of them ahead of it.

Key:
[1] = test system: chronic constriction nerve injury model rat; experiment: Chronic constriction nerve injury model rat, mechanical allodynia by von Frey test; type: in vivo; settings: von Frey test, left hind paw
Description: This test was performed by referring to a method of Bennett et al. (Pain, 1988, vol. 33, pp. 87-107). Compound A was used as a test substance, and celecoxib, one of NSAIDs, was used as a reference substance. The compound A was administered at a dose of 30 mg/kg (Compound A group). The celecoxib was administered at a dose of 30 mg/kg (celecoxib group). To a control group, a 0.5% methyl cellulose aqueous solution used as a vehicle was administered. Under anesthetic with Somnopentyl (manufactured by Kyoritsu Seiyaku Corporation, about 52 mg/kg, intraperitoneal administration), nerve constriction operation was performed on the left sciatic nerves of Sprague-Dawley male rats (7 weeks old). Briefly, a left femoral region of each rat was dissected, the sciatic nerve was detached from tissues around, and the nerve was loosely constricted with a 4-0 silk suture (manufactured by Eticon Inc., surgical silk) for having narrow parts in four positions at intervals of about 1 mm. The muscular layer and the skin were respectively sutured, and the operation region was disinfected. The vehicle, the test substance or the reference substance was orally administered once a day continuously for 14 days from the 16th day after the operation. From the start of the administration, pain sense (mechanical allodynia) of the footpad of left hind paw was evaluated by von Frey test. […] The evaluation of the pain sense was expressed as an average of pain threshold values.

MIF = biological target: T1, MIF (Homo sapiens, UniProt P14174); experiment: Inhibition of MIF tautomerase activity (L-dopachrome methyl ester, absorbance at 475 nm); type: biochemical; settings: 30 μmol/L test substance, 10 to 50 nmol/L MIF, pH 6.2, control = 100%; read-out: Inhibition Rate of Tautomerase Reaction
T1 construct: (catalogue number not given); host or cells: E. coli BL21 Star (DE3)
T1 sequence (P14174 2-115 limits assumed): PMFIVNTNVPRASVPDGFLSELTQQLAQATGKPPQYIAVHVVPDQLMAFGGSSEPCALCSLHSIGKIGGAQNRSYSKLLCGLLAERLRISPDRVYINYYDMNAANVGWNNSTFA
Description: The inhibitory effect of test substances against tautomerase activity of MIF was evaluated by referring to a method of Healy et al. (Cancer Epidemiology Biomarkers and Prevention, 2011, vol. 20, pp. 1516-1523).
In this method, tautomeric reaction from L-3,4-dihydroxyphenylalanine methyl ester (L-dopachrome methyl ester, colored) to 5,6-hydroxyindole-2-carboxylic acid methyl ester (no color) is measured as a change in absorbance at 475 nm.
As an enzyme source, recombinant MIF manufactured by Abcam Plc. or MIF produced and purified by referring to a method of Lubetsky et al. (The Journal of Biological Chemistry, 2002, vol. 277, pp. 24976-24982) was used. A purification method for MIF is described below.
The pET15b vector (Merck) into which the full length gene sequence of MIF had been inserted was transfected E. coli BL21 Star (DE3) strain (Life Technologies Corporation). […] The E. coli were resuspended in buffer (pH 7.5) containing 20 mmol/L Tris (Wako Pure Chemical Industries, Ltd.), 20 mmol/L sodium chloride (Wako Pure Chemical Industries, Ltd.) and 1 mmol/L dithiothreitol (Wako Pure Chemical Industries, Ltd.), and the resultant was subjected to ultrasonic lysis and centrifugation at 15000 rpm for 10 minutes. The thus obtained supernatant was filtered using a 0.20 μm filter, and was allowed to pass through HiTrap Q HP and HiTrap SP HP columns (GE Healthcare Japan Corporation), so as to separate flow-through fractions each of 5 mL. Each of 10 μL of the separated fractions was subjected to the electrophoresis using 5 to 20% polyacrylamide gel (Wako Pure Chemical Industries, Ltd.), and all proteins were stained with Coomassie brilliant blue reagent (Bio-Rad Laboratories, Inc.). On the basis of results thus obtained, a fraction containing a large amount of MIF and containing least amount of other proteins was selected as purified MIF. The concentration of MIF protein was measured by using BCA protein assay reagent (Thermo Fisher Scientific K. K.).
Inhibitory effect of each test substance against MIF tautomerase activity was measured as follows.
A final concentration of 10 to 50 nmol/L of MIF and a final concentration of 30 μmol/L of each test substance or 0.5% dimethyl sulfoxide (Wako Pure Chemical Industries, Ltd.) as a control were added to buffer (pH 6.2) containing 50 mmol/L Bis-Tris (Dojindo Laboratories) and 1 mmol/L EDTA (Dojindo Laboratories), and reaction was performed at room temperature for 15 minutes to give a reaction solution 1.
On the other hand, 1/20 volume of 12 mmol/L L-3,4-dihydroxyphenylalanine methyl ester (Sigma Aldrich) and 1/20 volume of 24 mmol/L sodium periodate (Wako Pure Chemical Industries, Ltd.) were added to buffer having the same composition as that used for obtaining the reaction solution 1, to give a reaction solution 2.
Next, the reaction solution 1 and the reaction solution 2 were mixed, and the temporal change of absorbance at 475 nm of the obtained mixture was immediately measured.
The difference of the absorbencies between the at about 1 minute after the measurement start and at about 5 minutes after was obtained. Assuming that the absorbance change of the control is 100%, an inhibiting rate of the tautomerase reaction in presence of=each test substance was calculated.

[2] = test system: chronic relapsing EAE model of mouse; type: in vivo
Description: Compound A was selected as a test substance, and salazosulfapyridine (hereinafter referred to as SASP) was selected as a comparative control agent. Compound A was administered at a dose of 30 mg/kg (Compound A group). SASP was administered at a dose of 300 mg/kg (SASP group). In control group and normal group (no induction treatment group), 0.5% methyl cellulose aqueous solution used as vehicle of the administration liquid was administered.
The chronic relapsing EAE was induced in SJL/J female mice by immunization with partial PLP peptide. Briefly, an emulsion was prepared by mixing equivalent volumes of phosphate buffer saline containing 1 mg/mL of the peptide corresponding to residues 139-151 of the PLP and Freund's […] adjuvant containing 4 mg/mL of killed M. Tuberculosis H37Ra. The emulsion was intradermically injected (50 μg of PLP per mouse) into four positions on the back for immunization, and additionally, on the day of the immunization and two days after, pertussis toxin was intraperitoneally injected in each amount of 150 ng per mouse, twice in total. The vehicle, the test substance or the reference article was orally administered continuously for 44 days once daily from the day of the immunization.
In the present experiment, paralysis was developed to reach a peak on the 14th to 16th day after the immunization, and the symptom remitted once, but relapsed to reach a peak on the 38th day.
The symptom was evaluated in accordance with a report of Weaver et al. (FASEB Journal, 2005, vol. 19, p. 1668). Briefly, paralysis of all of the four limbs and the tail was evaluated by scoring in 4 ranks of scores of 0 to 3 and in 3 ranks of scores of 0 to 2, respectively, and the sum of the scores was determined as EAE score (the maximum score 14).
Incidence rates (the number of mice having developed the disease/the number of used mice) and the average of EAE score of each group were measured at the period of initial onset (on the 15th day after the immunization) and at the period of relapse (on the 38th day after the immunization).

Compound: Cc1ccc(-c2cc(C(F)(F)F)nn2-c2ccc(S(N)(=O)=O)cc2)cc1 [Celecoxib, celecoxib, reference compound]
Average of pain thresholds, 30th day after operation ([1]; 30 mg/kg orally once a day for 14 days from the 16th day after operation): 3.1 g
Average of pain thresholds, 15th day after operation ([1]; day before start of administration, 30 mg/kg groups): 2.5 g

inhibition at 30 µM (MIF): 50 to 75%
Compound: CS(=O)(=O)Nc1cc2occ(N)c(=O)c2cc1Oc1ccccc1 [Compound B, N-(3-amino-4-oxo-6-phenoxy-4H-1-benzopyran-7-yl)methanesulfonamide]

inhibition at 30 µM (MIF): 50 to 75%
Compound: CC(=O)Nc1coc2cc(NS(C)(=O)=O)c(Oc3ccccc3)cc2c1=O [Compound C, N-[7-[(methylsulfonyl)amino]-4-oxo-6-phenoxy-4H-1-benzopyran-3-yl]acetamide]

inhibition at 30 µM (MIF): 50 to 75%
Compound: CS(=O)(=O)Nc1cc2occc(=O)c2cc1Oc1ccccc1 [Compound D, N-(4-oxo-6-phenoxy-4H-1-benzopyran-7-yl)methanesulfonamide]

inhibition at 30 µM (MIF): ≥ 75%
Compound: CS(=O)(=O)Nc1cc2oc(C(N)=O)cc(=O)c2cc1Oc1ccccc1 [Compound E, 7-[(methylsulfonyl)amino]-4-oxo-6-phenoxy-4H-1-benzopyran-2-carboxamide]

inhibition at 30 µM (MIF): ≥ 75%
Compound: CC(=O)Nc1cc(=O)c2cc(Oc3ccccc3)c(NS(C)(=O)=O)cc2o1 [Compound F, N-[7-[(methylsulfonyl)amino]-4-oxo-6-phenoxy-4H-1-benzopyran-2-yl]acetamide]

inhibition at 30 µM (MIF): 50 to 75%
Compound: CS(=O)(=O)Nc1cc2occ(C(N)=O)c(=O)c2cc1Oc1ccccc1 [Compound G, 7-[(methylsulfonyl)amino]-4-oxo-6-phenoxy-4H-1-benzopyran-3-carboxamide]

inhibition at 30 µM (MIF): ≥ 75%
Compound: CCS(=O)(=O)Nc1cc2occ(NC=O)c(=O)c2cc1Oc1ccccc1 [Compound H, N-[7-[(ethylsulfonyl)amino]-4-oxo-6-phenoxy-4H-1-benzopyran-3-yl]formamide]

inhibition at 30 µM (MIF): ≥ 75%
Compound: CS(=O)(=O)Nc1cc2oc(-c3ccccc3)cc(=O)c2cc1Oc1ccccc1 [Compound I, N-(4-oxo-6-phenoxy-2-phenyl-4H-1-benzopyran-7-yl)methanesulfonamide]

Compound: O=C(O)c1cc(/N=N/c2ccc(S(=O)(=O)Nc3ccccn3)cc2)ccc1O [SASP, salazosulfapyridine]
Animals died, by period of initial onset ([2]; 15th day after immunization, 8 animals, 300 mg/kg orally once daily): (1 animal
EAE score, period of initial onset ([2]; 15th day after immunization, average, maximum score 14, oral once daily (Compound A 30 mg/kg, SASP 300 mg/kg)): 5.5
Incidence rate, period of initial onset ([2]; 15th day after immunization, mice having developed the disease/mice used, oral once daily from immunization (Compound A 30 mg/kg, SASP 300 mg/kg)): 7/7
Animals died, by period of relapse ([2]; 38th day after immunization, 8 animals, 300 mg/kg orally once daily): (2 animals
EAE score, period of relapse ([2]; 38th day after immunization, average, maximum score 14, oral once daily (Compound A 30 mg/kg, SASP 300 mg/kg)): 2.0
Incidence rate, period of relapse ([2]; 38th day after immunization, mice having developed the disease/mice used, oral once daily (Compound A 30 mg/kg, SASP 300 mg/kg)): 6/6
Effect on incidence rate / EAE score, paralysis of chronic relapsing EAE ([2]; oral once daily for 44 days from immunization (Compound A 30 mg/kg, SASP 300 mg/kg)): neither the incidence rate nor the EAE score was lowered
